# Where “and” joins values, the source holds several entries; their conditions need not be identical. Equal values may be shown once. Toxic doses and inconclusive results are not listed.
# Test system: P388 leukemia ip, CD2F1 mice, survival T/C
# Test: NCI In Vivo Anticancer Drug Screen. Data for tumor model P388 Leukemia (intraperitoneal) in CD2F1 (CDF1) mice
# Settings: endpoint: median survival time, higher = longer survival
# How it was run: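 Mice carrying the transplanted tumor received test compound or vehicle. Survival was recorded in each group, and the value is the treated-group measurement divided by that of the vehicle-treated control group.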
# [1] = dose: 50.0 mg/kg/injection, schedule: Q01DX009 (ip), vehicle: saline
# [2] = dose: 100.0 mg/kg/injection, schedule: Q01DX009 (ip), vehicle: saline
compound,measurement,setting,value
C[N+]1(Cc2ccc(C(N)=O)cc2)CCC(CCC2CC[N+](C)(Cc3ccc(C(N)=O)cc3)CC2)CC1 (configuration not stated),T/C,"dose: 0.78 mg/kg/injection, schedule: Q01DX005 (ip), vehicle: saline with Tween-80",93 % of control
same,T/C,"dose: 1.56 mg/kg/injection, schedule: Q01DX005 (ip), vehicle: saline with Tween-80",101 % of control
same,T/C,"dose: 3.13 mg/kg/injection, schedule: Q01DX005 (ip), vehicle: saline with Tween-80",90 % of control
CN1CCNc2c1cc(O)c1c2C(=O)c2ccccc2C1=O,T/C,"dose: 100.0 mg/kg/injection, schedule: Q01DX001 (ip), vehicle: Klucel (hydroxypropylcellulose) (HPC)",101 % of control
same,T/C,"dose: 200.0 mg/kg/injection, schedule: Q01DX001 (ip), vehicle: Klucel (hydroxypropylcellulose) (HPC)",94 % of control
same,T/C,"dose: 400.0 mg/kg/injection, schedule: Q01DX001 (ip), vehicle: Klucel (hydroxypropylcellulose) (HPC)",98 % of control
N#Cc1ccc(NN=NCCS(=O)CCCl)cc1 (configuration not stated),T/C,"dose: 6.25 mg/kg/injection, schedule: Q01DX009 (ip), vehicle: distilled water + Tween-80",100 % of control
same,T/C,"dose: 12.5 mg/kg/injection, schedule: Q01DX009 (ip), vehicle: distilled water + Tween-80",111 % of control
same,T/C,"dose: 25.0 mg/kg/injection, schedule: Q01DX009 (ip), vehicle: distilled water + Tween-80",112 % of control
CC1=Nc2ccccc2NC(C)(C)C1,T/C,[1],103 % of control
same,T/C,[2],100 % of control
same,T/C,"dose: 200.0 mg/kg/injection, schedule: Q01DX009 (ip), vehicle: saline",100 % of control
CC(C)(C)C1CCC(C(=O)O)CC1 (configuration not stated),T/C,"dose: 50.0 mg/kg/injection, schedule: Q01DX009 (ip), vehicle: saline with Tween-80",91 % of control
same,T/C,"dose: 50.0 mg/kg/injection, schedule: Q04DX003 (ip), vehicle: saline with Tween-80",100 % of control
same,T/C,"dose: 100.0 mg/kg/injection, schedule: Q01DX009 (ip), vehicle: saline with Tween-80",100 % of control and 91 % of control
same,T/C,"dose: 100.0 mg/kg/injection, schedule: Q04DX003 (ip), vehicle: saline with Tween-80",95 % of control
same,T/C,"dose: 200.0 mg/kg/injection, schedule: Q01DX009 (ip), vehicle: saline with Tween-80",91 % of control and 100 % of control
same,T/C,"dose: 200.0 mg/kg/injection, schedule: Q04DX003 (ip), vehicle: saline with Tween-80",109 % of control and 95 % of control
same,T/C,"dose: 400.0 mg/kg/injection, schedule: Q01DX009 (ip), vehicle: saline with Tween-80",91 % of control
same,T/C,"dose: 400.0 mg/kg/injection, schedule: Q04DX003 (ip), vehicle: saline with Tween-80",100 % of control
CC(=O)/C=C1/NC=CN(C(=O)c2ccccc2)C1c1ccccc1 (configuration not stated),T/C,"dose: 60.0 mg/kg/injection, schedule: Q01DX005 (ip), vehicle: Klucel (hydroxypropylcellulose) (HPC)",94 % of control
same,T/C,"dose: 120.0 mg/kg/injection, schedule: Q01DX005 (ip), vehicle: Klucel (hydroxypropylcellulose) (HPC)",92 % of control
same,T/C,"dose: 240.0 mg/kg/injection, schedule: Q01DX005 (ip), vehicle: Klucel (hydroxypropylcellulose) (HPC)",87 % of control
COc1ccc2c3c([nH]c2c1)C(C)=NCC3,T/C,"dose: 50.0 mg/kg/injection, schedule: Q01DX005 (ip), vehicle: saline",100 % of control
same,T/C,"dose: 100.0 mg/kg/injection, schedule: Q01DX005 (ip), vehicle: saline",105 % of control
N#CC(Br)CNC(=O)Oc1ccccc1 (configuration not stated),T/C,"dose: 50.0 mg/kg/injection, schedule: Q01DX005 (ip), vehicle: Klucel (hydroxypropylcellulose) (HPC)",104 % of control
same,T/C,"dose: 100.0 mg/kg/injection, schedule: Q01DX005 (ip), vehicle: Klucel (hydroxypropylcellulose) (HPC)",106 % of control
same,T/C,"dose: 200.0 mg/kg/injection, schedule: Q01DX005 (ip), vehicle: Klucel (hydroxypropylcellulose) (HPC)",105 % of control
CC(F)C(N)C(=O)O (configuration not stated),T/C,"dose: 6.25 mg/kg/injection, schedule: Q01DX009 (ip), vehicle: Klucel (hydroxypropylcellulose) (HPC)",108 % of control and 117 % of control
same,T/C,"dose: 12.5 mg/kg/injection, schedule: Q01DX009 (ip), vehicle: Klucel (hydroxypropylcellulose) (HPC)",110 % of control and 118 % of control
same,T/C,"dose: 25.0 mg/kg/injection, schedule: Q01DX009 (ip), vehicle: Klucel (hydroxypropylcellulose) (HPC)",116 % of control
same,T/C,[1],106 % of control
same,T/C,[2],124 % of control
COc1cccc2c1[C@H]1CO[C@H]3C4C[C@H](C(=O)O)C([C@@H](C2)N13)N4C (some centres not stated),T/C,"dose: 0.31 mg/kg/injection, schedule: Q01DX005 (ip), vehicle: water",112 % of control
same,T/C,"dose: 0.62 mg/kg/injection, schedule: Q01DX005 (ip), vehicle: water",113 % of control and 121 % of control
same,T/C,"dose: 1.25 mg/kg/injection, schedule: Q01DX005 (ip), vehicle: water",116 % of control
same,T/C,"dose: 10.0 mg/kg/injection, schedule: Q01DX005 (ip), vehicle: water",165 % of control and 195 % of control and 247 % of control
same,T/C,"dose: 20.0 mg/kg/injection, schedule: Q01DX005 (ip), vehicle: water",247 % of control
O=C(C[n+]1ccsc1Br)c1ccccc1,T/C,"dose: 50.0 mg/kg/injection, schedule: Q01DX005 (ip), vehicle: saline with Tween-80",102 % of control
same,T/C,"dose: 100.0 mg/kg/injection, schedule: Q01DX005 (ip), vehicle: saline with Tween-80",119 % of control
N#C/C(=C/c1cccs1)c1ccc(Cl)cc1,T/C,"dose: 100.0 mg/kg/injection, schedule: Q04DX003 (ip), vehicle: Klucel (hydroxypropylcellulose) (HPC)",109 % of control
same,T/C,"dose: 200.0 mg/kg/injection, schedule: Q04DX003 (ip), vehicle: Klucel (hydroxypropylcellulose) (HPC)",99 % of control

# Source: PubChem BioAssay AID330 (DTP/NCI, 2004)
